According to patent publication US20150133341A1, “Intra-Operative Cancer Diagnosis Based on a Hyperpolarized Marker” (ALBEDA INNOVATIONS APS, priority 2012, published 2015):

What was measured:
[1] = target: T1, CE-2 in lysed human breast cancer cells (MCF-7) (Homo sapiens, UniProt O00748); test: CE-2 activity on acetate esters in lysed MCF-7 cells, 1H NMR; type: biochemical; conditions: for k: 5 million lysed MCF-7 cells
T1 construct: endogenous in cells; host or cells: MCF-7 (sonicated lysate)
T1 sequence (O00748 27-559): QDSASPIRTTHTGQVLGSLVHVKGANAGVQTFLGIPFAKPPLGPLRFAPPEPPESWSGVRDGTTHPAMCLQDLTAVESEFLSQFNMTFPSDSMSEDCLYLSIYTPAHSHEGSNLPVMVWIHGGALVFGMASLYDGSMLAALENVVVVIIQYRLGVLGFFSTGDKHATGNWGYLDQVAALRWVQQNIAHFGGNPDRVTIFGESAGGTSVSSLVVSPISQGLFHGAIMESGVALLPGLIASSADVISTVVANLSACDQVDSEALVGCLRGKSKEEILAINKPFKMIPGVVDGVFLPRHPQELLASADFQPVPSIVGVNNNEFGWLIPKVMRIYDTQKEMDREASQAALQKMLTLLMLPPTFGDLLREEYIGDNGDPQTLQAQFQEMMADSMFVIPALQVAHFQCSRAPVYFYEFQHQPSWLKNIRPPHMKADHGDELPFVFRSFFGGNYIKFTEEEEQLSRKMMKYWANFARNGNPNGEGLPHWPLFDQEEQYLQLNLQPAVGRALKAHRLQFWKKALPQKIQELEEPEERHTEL
Experimental: Different classes of short chain esters, fulfilling the requirements for the hyperpolarization technique (stable, soluble, low molecular weight compounds (<400 Da), were evaluated as substrates for carboxyl esterases with the aim to identify esters as similar or better substrates for carboxyl esterases than 1,3-^13C2 ethyl acetoacetate. In most human cell types, including a wide range of cancer cells and lymphocytes, the activity of carboxyl esterase is dominated by the activities of isoforms 1 and 2 (CE-1 and CE-2). To measure exclusively the hydrolysis of carboxyl esterase from the CE-1 isoform, an isolated enzyme from porcine liver was applied. To measure almost exclusively the contribution of carboxyl esterase activity from the CE-2 isoform, human breast cancer cells (MCF-7) were employed. These cells are known from literature to express CE-2 but not to express CE-1 (Byun et al, 2008, Cancer letters 266:238-48). A group of esters was investigated as substrates for CE-1, which contained different structural features. […] Also esters with large alcohol groups and small acid groups were investigated. In this group, the acid part of the molecule was always acetate and different structural properties of the alcohol were investigated. These consisted of esters of un-substituted alcohols (examples ethyl acetate and butyl acetate), esters of branched chain alcohols (examples t-butyl acetate, ethyl 3-acetoxy butanoate and 2-acetoxy propionate), esters of aromatic alcohols (example benzyl acetate), esters of diols (example ethyleneglycol diacetate), esters of triols (example triacetin). Esters of alpha-keto acids were too unstable to be investigated in this assay. Esters of larger alcohols are not water soluble and therefore not relevant substrates for the purpose of the invention. Similarly, a group of esters which contained different structural features was investigated as substrates for CE-2. CE-2 substrates are described in the literature to consist of a small acid group and a larger alcohol group. All included esters were acetate esters (i.e. esters of acetic acid) in the interest of keeping the acid moiety the smallest possible. The acetate esters measured for CE-2 activity were therefore the same as those measured in the second group of possible substrates for CE-1. The CE-2 experiments were performed with lysed breast cancer cells (MCF-7). MCF-7 cells were grown in RPMI medium with 10% FBS and antibiotics. They were at confluence harvested by trypsination and washed once with 5 ml PBS. They were spun down and resuspended in PBS to a concentration of 20 mill. cells/ml. The cells were hereafter sonicated on ice (50% amplitude, 1 min, 3 sec pulse). 250 μl sonicated cell suspension was mixed with 250 μl 400 mM phosphate buffer pH 7.3. […] The substrate was added (50 μl, 60 mM) and the tube turned for mixing before it was inserted into the spectrometer. An initial spectrum was acquired and the sample was hereafter placed at 37° C. for 1 hour in a water bath. The sample was again inserted into the magnet and a second spectrum was recorded. The data was analysed with MNOVA software and measured as percentage conversion of substrate calculated to account for the amount of substrate converted over 60 min. The numbers are given in μmol/hour.

[2] = test system: carboxyl esterase in lysed lymphocytes (B + T cells); test: Carboxyl esterase activity in cell extract, 1H NMR; type: biochemical, human; conditions: 5 million lysed cells; for Metabolic conversion, Lymphocytes (B + T cells): 37° C.
Experimental: (§1) The hydrolysis of the substrates was investigated in cell extracts. To test substrates without isotope labelling for carboxyl esterase activity in a cellular background, a ^1H NMR assay was applied. Human breast cancer cells (MCF-7) and human prostate cancer cells (PC-3) were grown in RPMI medium with 10% FBS and antibiotics. They were at confluence harvested by trypsination and washed once with 5 ml PBS. They were spun down and resuspended in PBS to a concentration of 20 mill. cells/ml. The cells were hereafter sonicated on ice (50% amplitude, 1 min, 3 sec pulse). Human lymphocytes were purified from whole blood. Whole blood samples were drawn from healthy volunteer into heparinised venous blood collection tubes (Venosafe vacumtubes from Terumo). For each experiment, the blood was purified freshly: Three and a half 10 mL tubes of blood were pooled in each of four 50 mL Leucosep (Greiner) tubes prepared with 15 mL Histopaque 1077 (Sigma). The Leucosep tubes were spun for 15 min at 800× g at 24 C. The plasma was removed and the white blood cells were transferred to a 50 mL falcon tube by decanting and diluted 1:2 in PBS-Mg—Ca for a total volume of 50 mL. The cells were sedimented by centrifugation at 250×g for 60 min. Diluting with trypan blue and counting in hemocytometer determined the total number of lymphocytes before sedimentation. All cells were viable and the total number of cells in each cell batch was approx. 60 million. The lymphocytes were redissolved to a concentration of 20 million cells/ml. The cells were hereafter sonicated on ice (50% amplitude, 1 min, 3 sec pulse).
(§2) 250 μl sonicated cell suspension was mixed with 250 μl 400 mM phosphate buffer pH 7.3. This solution was transferred to a 5 mm NMR tube and warmed on a water bath to 37° C. The substrate was added (50 μl, 60 mM) and the tube turned for mixing before it was inserted into the spectrometer. The data was analyzed with MNOVA software and measured as percentage conversion of substrate calculated to account for the amount of substrate converted over 60 min; numbers are given in μmol/hour.

[3] = test system: carboxyl esterase in lysed prostate cancer cells (PC-3); test: Carboxyl esterase activity in cell extract, 1H NMR; type: biochemical, human; conditions: for Metabolic conversion, Prostate cancer cells PC-3: 37° C.
Experimental: as §1, §2

[4] = test system: carboxyl esterase in lysed breast cancer cells (MCF-7); test: Carboxyl esterase activity in cell extract, 1H NMR; type: biochemical, human; conditions: 5 million lysed cells; for Metabolic conversion, Breast cancer cells MCF-7: 37° C.
Experimental: as §1, §2

[5] = acetate vs ethyl ester function

Row | Structure (SMILES) | k (μmol/min), acetate ester ([1]; hydrolysis of the acetate ester function, lysed MCF-7 cells, 37° C., 1 hour) [µmol/min] | hydrolysis by CE-2, in words ([1]; lysed MCF-7 cells) | Lymphocytes (B + T cells) Ratio acetate/ethyl [2, 5] | Prostate cancer cells PC-3 Ratio acetate/ethyl ([3]; 5 million lysed cells, acetate vs ethyl ester function) | Breast cancer cells MCF-7 Ratio acetate/ethyl [4, 5] | k ([1]; 37° C., 1 hour) [µmol/min] | hydrolysis by CE-2, in words ([1]; lysed MCF-7 cells, listed as benzyl acetate) | Metabolic conversion, Lymphocytes (B + T cells) [2] [µmol/h] | Metabolic conversion, Prostate cancer cells PC-3 ([3]; 5 million lysed cells) [µmol/h] | metabolic conversion in prostate cancer cells compared to lymphocytes ([3]; cell number basis, positive contrast) [times] | Metabolic conversion, Breast cancer cells MCF-7 [4] [µmol/h]
1 | CCOC(=O)CC(C)OC(C)=O (centres unmarked) [ethyl 3-acetoxy butanoate] | 0.18 | hydrolysed to a similar extent | 1 | 9 | 2 |  |  |  |  |  | 
2 | CC(=O)OCc1ccccc1 [Benzyl acetate] |  | hydrolysed particularly fast |  |  |  | 1.05 | the best | 0.39 | 22 | ~60 | 1.05
3 | CC(=O)OCC(COC(C)=O)OC(C)=O [Tri-acetin] |  | hydrolysed to a similar extent |  |  |  | 0.27 |  | 0.18 | 1.8 |  | 0.27
